Consider 17 molecules from US8778966B2, “Quinolinone derivatives as PARP and tank inhibitors” (Janssen Pharmaceutica, NV, priority 2007, dated 2014).

Where two headings read alike, the source gives them in different places. A value given as a limit tells only on which side of the number the result lay.

One assay has as its target T1, Human PARP-1 enzyme (Homo sapiens, UniProt P09874).
T1 construct: purchased Trevigen
In words: In vitro Scintillation Proximity Assay (SPA) for PARP-1 inhibitory activity. It counts as biochemical. Particulars: read-out: in vitro SPA assay PARP-1 pIC50 (converted). The procedure, abridged:
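SPA assay: nicked-DNA-activated PARP-1 (0.1–0.2 μg/ml) ADP-ribosylates biotinylated histones (2 μg/ml) using [3H]-NAD+, 20 min at RT in Tris pH 8/DTT/MgCl2, stopped with 2 mM NAD+. Blank-subtracted cpm expressed as % control; IC50 by linear interpolation, reported as pIC50 (10−5 to 3×10−9 M tested).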

The next assay concerns HCT116 cells. The experiment in a line: Antiproliferative activity, Alamar Blue assay, HCT116 cells. It counts as cell-based, human. Particulars: Homo sapiens, HCT-116, HCT116 cells, read-out: HCT116 antiproliferative activity pIC50 (converted). Put shortly: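 Readout is resazurin fluorescence (ex 540, em 590 nm) after a 4 h dye incubation at 37 °C, following 4-day compound treatment of HCT116 cells plated 24 h earlier. Results expressed as % viable cells versus untreated; pIC50 derived from probit-fitted IC50.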

T1 sequence (P09874 whole entry): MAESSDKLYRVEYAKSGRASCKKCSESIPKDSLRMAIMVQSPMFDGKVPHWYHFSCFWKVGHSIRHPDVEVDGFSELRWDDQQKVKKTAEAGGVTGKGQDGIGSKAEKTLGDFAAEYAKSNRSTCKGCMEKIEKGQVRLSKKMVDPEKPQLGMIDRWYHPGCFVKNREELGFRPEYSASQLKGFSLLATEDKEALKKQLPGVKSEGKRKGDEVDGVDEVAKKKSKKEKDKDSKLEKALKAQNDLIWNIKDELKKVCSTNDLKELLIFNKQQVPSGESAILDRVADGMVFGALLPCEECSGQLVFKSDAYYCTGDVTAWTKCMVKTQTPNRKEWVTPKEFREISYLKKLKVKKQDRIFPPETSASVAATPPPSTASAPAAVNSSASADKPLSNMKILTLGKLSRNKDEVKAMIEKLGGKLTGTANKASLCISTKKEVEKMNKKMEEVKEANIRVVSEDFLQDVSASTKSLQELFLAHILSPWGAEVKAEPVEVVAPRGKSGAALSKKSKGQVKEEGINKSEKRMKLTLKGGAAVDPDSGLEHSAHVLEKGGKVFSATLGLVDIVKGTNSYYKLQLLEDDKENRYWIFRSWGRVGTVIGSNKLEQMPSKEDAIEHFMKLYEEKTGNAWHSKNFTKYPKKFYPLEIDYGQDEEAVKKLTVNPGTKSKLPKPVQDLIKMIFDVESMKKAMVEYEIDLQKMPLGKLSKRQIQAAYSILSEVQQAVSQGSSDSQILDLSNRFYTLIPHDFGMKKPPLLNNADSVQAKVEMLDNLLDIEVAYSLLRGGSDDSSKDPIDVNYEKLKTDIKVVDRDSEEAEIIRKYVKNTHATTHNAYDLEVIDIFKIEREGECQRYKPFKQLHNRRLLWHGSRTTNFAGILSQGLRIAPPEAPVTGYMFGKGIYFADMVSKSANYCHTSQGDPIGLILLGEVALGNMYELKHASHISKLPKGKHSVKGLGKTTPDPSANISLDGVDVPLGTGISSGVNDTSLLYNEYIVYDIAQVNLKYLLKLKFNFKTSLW

As to `CCc1cc2ccc(C(C)(C#N)Cc3cccc(Br)c3)cc2[nH]c1=O` (stereo not shown) [Compound 49], the IC50 is 0.316 µM on Human PARP-1 enzyme and 0.2 µM with HCT116 cells.

Take `CCc1cc2ccc(C(C)(C#N)Cc3cccc(C#N)c3)cc2[nH]c1=O` (stereo not shown) [Compound 51]: the IC50 on Human PARP-1 enzyme and in the assay with HCT116 cells was 0.126 µM throughout.

Consider `CCc1cc2ccc(C(C)(C#N)Cc3cccnc3)cc2[nH]c1=O` (stereo not shown) [Compound 97], for which the IC50 at Human PARP-1 enzyme was 0.0398 µM; in the assay on HCT116 cells, 2.51 µM.

Turning to `CCc1cc2ccc([C@](C)(C#N)Cc3ccccc3)cc2[nH]c1=O` (single isomer, unassigned) [Compound 45], the IC50 was 0.316 µM at Human PARP-1 enzyme and over 10 µM in the assay on HCT116 cells.

As for `CCc1cc2ccc(C(C)(C#N)CCOc3cc(Cl)c(Cl)cc3Cl)cc2[nH]c1=O` (stereo not shown) [Compound 277], the figures for the IC50 at Human PARP-1 enzyme and with HCT116 cells (Alamar Blue) were 0.398 µM and 0.501 µM, respectively.

Take `CCc1cc2ccc([C@@](C)(C#N)Cc3nc(OC)cc(OC)n3)cc2[nH]c1=O` (single isomer, unassigned) [Compound 53]: the IC50 is 0.0501 µM at Human PARP-1 enzyme and 0.0398 µM with HCT116 cells (Alamar Blue).

For `CCc1cc2ccc(C(C)(C#N)Cc3cccc(CN4CCN(C)CC4)c3)cc2[nH]c1=O` (stereo not shown) [Compound 57], the IC50 is 3.98 µM on Human PARP-1 enzyme and over 10 µM with HCT116 cells.

Consider `CCc1cc2ccc(C(C)(C#N)Cc3nc(OC)cc(OC)n3)cc2[nH]c1=O` (stereo not shown) [Compound 43], for which the IC50 at Human PARP-1 enzyme is 0.2 µM; in the assay on HCT116 cells, 0.158 µM.

Turning to `CCc1cc2ccc(C(C)(C#N)Cc3cc(C)ccc3C)cc2[nH]c1=O` (stereo not shown) [Compound 78], the results for the IC50 on Human PARP-1 enzyme and with HCT116 cells were 1.26 µM and 0.398 µM, respectively.

With `CCc1cc2ccc(C(C)(C#N)CCOc3ccc([N+](=O)[O-])cc3)cc2[nH]c1=O` (stereo not shown) [Compound 54], the results for the IC50 at Human PARP-1 enzyme and with HCT116 cells were 0.158 µM and 0.501 µM, respectively.

For `CCc1cc2ccc(C(C)(C#N)Cc3c(C)c(C)c(C)c(C)c3C)cc2[nH]c1=O` (stereo not shown) [Compound 89], the IC50 at Human PARP-1 enzyme is 1.58 µM; with HCT116 cells, over 10 µM.

In the case of `CCc1cc2ccc(C(C)(C#N)Cc3nnsc3Cl)cc2[nH]c1=O` (stereo not shown) [Compound 42], the IC50 on Human PARP-1 enzyme was 0.2 µM; with HCT116 cells, 0.158 µM.

With `CCc1cc2ccc([C@@](C)(C#N)Cc3ccccc3)cc2[nH]c1=O` (single isomer, unassigned) [Compound 46], the IC50 on Human PARP-1 enzyme is 0.316 µM; in the assay on HCT116 cells, 0.158 µM.

Take `CCc1cc2ccc(C(C)(C#N)Cc3cccc(CN4CCOCC4)c3)cc2[nH]c1=O` (stereo not shown) [Compound 58]: the IC50 at Human PARP-1 enzyme and with HCT116 cells was 0.501 µM each time.

Consider `CCc1cc2ccc(C(C)(C#N)Cc3ccc(F)c(C)c3)cc2[nH]c1=O` (stereo not shown) [Compound 79], for which the IC50 at Human PARP-1 enzyme and in the assay with HCT116 cells was 0.794 µM throughout.

For `CCc1cc2ccc(C(C)(C#N)Cc3ccc(Cl)c(C(F)(F)F)c3)cc2[nH]c1=O` (stereo not shown) [Compound 82], the IC50 is 3.98 µM at Human PARP-1 enzyme and 0.316 µM in the assay with HCT116 cells.

As for `CCc1cc2ccc(C(C)(C#N)Cc3cccc(OCCCN4CCOCC4)c3)cc2[nH]c1=O` (stereo not shown) [Compound 68], the IC50 at Human PARP-1 enzyme was 1 µM; with HCT116 cells, 6.31 µM.
